The nature of data set [1]: Fluorogenic addition reaction kinetics of MBP-dC10 libraries I, II and III with dansyl-dM10 fluorogen 1, plate reader, 28° C. The class given is biochemical. The conditions noted are these: for reactivity of single mutants A17X (second order rate constant), in words: fluorogen 1, 50 μM equimolar, pH 7.5, 28° C., FIGS. 6 and 7; for increase in reactivity towards a dimaleimide fluorogen, triple mutants: fluorogen 1, relative to parent dC10, FIG. 10. The procedure:
Library I with point mutants at position A17 is represented in dark grey, library II with double mutants A16-A17 is represented in light grey, and library III with triple mutants A3-A16-A17 is represented in black. The rate constant for parent MBP-dC10 is represented in white. All measurements were performed at least in duplicate. The reactivity of each single mutant of MBP-dC10 was evaluated through their reaction with dansyl-dM10 fluorogen 1 (Caron, K. et al., Org. Biomol. Chem., 9: 185-197, 2011), commonly used for test purposes. Equimolar concentrations of 50 μM of fluorogen 1 and MBP-dC10 variant were used in pH 7.5 buffer HEPES 50 mM, supplemented with 1 mM of TCEP reducing agent to reduce disulfide bonds that could form during protein purification or storage. […] Progress curves of the fluorogenic addition reaction were acquired with a plate reader that allowed us to study a large number of samples at the same time. Since the dansyl fluorophore is sensitive to its environment, the reaction of each MBP-dC10 variant led to an end point of slightly different fluorescence intensity. We used a simple second order kinetic model A+B→C where reactants A and B were used in equimolar concentrations. The product C is the only fluorescent species in the milieu and its appearance can be directly followed by increase of fluorescence. Use of this model implies that the second thiol addition is extremely fast due to its intramolecular character, and that the second order kinetic constant k2 depends exclusively on the first thiol addition. This reasonable approximation allowed us to evaluate very simply the overall dC10 reactivity modulated by the presence of stabilizing residues in the proximity of cysteines C6 and C13. Reactivity of each MBP-dC10 variant was assessed by determining the second order rate constant of the fluorogenic labelling reaction with a dansyl-dimaleimide fluorogenic molecule, referred to as dansyl-dM10 1 (FIG. 11). […] Biomol. Chem. 9: 185-197, 2011). Initial kinetic studies performed on MBP-dC10 histidine mutants S2H, R9H, A7H and S2H-A17H were done at the scale of 500 μL in the established conditions described below, using a Cary Eclipse Fluorimeter (Varian, Inc., Mississauga, Ontario, Canada) at 20° C. […] Libraries I, II and III were assayed using a plate reader: briefly, in a reaction scale of 200 μL, 50 μM MBP-dC10 (or variants) and 50 μM dansyl-dM10 1 were mixed in HEPES 50 mM pH 7.5 buffer in the presence of TCEP 1 mM. Fluorescence increase was followed at 28° C. long after completion of the reaction (2 hours) using the Synergy™ H4 Hybrid Multi-Mode Microplate Reader (BioTek, Winooski, Vt., United States) plate reader at 515 nm, upon excitation at 330 nm of the dansyl fluorophore of 1. Second order reaction constants were determined using the initial slope and the final plateau of each kinetic curve. All reactions were performed in duplicate to quadruplicate. For pH dependent kinetics, MBP-dC10 variants were dialysed into a buffer of desired pH, containing 50 mM of buffering salt (pH 7.50-8.00: HEPES; pH 8.25-8.75: Tris-HCl; pH 9.00: CHES) and 1 mM TCEP, overnight at 4° C., with gentle stirring. Fluorogenic reactions were performed in a plate reader as described above, in duplicate.

Data set [2] can be described thus: Kinetics of addition of fluorogen 1 to MBP-dC10 histidine mutants, Cary Eclipse fluorimeter, 20° C. The class given is biochemical. The conditions noted are these: fluorogen 1, 20° C., FIG. 4. As to the method:
To start, we used fluorogen 1.
Reactivity of each MBP-dC10 variant was assessed by determining the second order rate constant of the fluorogenic labelling reaction with a dansyl-dimaleimide fluorogenic molecule, referred to as dansyl-dM10 1 (FIG. 11). Dansyl-dM10 was synthesized as described (Caron, K. et al., Org. Biomol. Chem. 9: 185-197, 2011). Initial kinetic studies performed on MBP-dC10 histidine mutants S2H, R9H, A7H and S2H-A17H were done at the scale of 500 μL in the established conditions described below, using a Cary Eclipse Fluorimeter (Varian, Inc., Mississauga, Ontario, Canada) at 20° C.

Data set [3] can be described thus: pH-rate profile of MBP-dC10 mutants with dansyl-dimaleimide fluorogen, pH 7.50-9.00. The conditions noted are these: from horizontal displacement of best fit lines of pH-rate profile, FIG. 8. In kind it is physicochemical. An excerpt:
A pH range between 7.50 and 9.00 was explored to determine the dependence of the second order rate constant on pH. Only several mutants from libraries II and III were chosen for this pH study: Triple mutants containing lysine and arginine (black line), triple mutants containing histidine and lysine or arginine (light grey line), double mutants (dark grey line) and parent dC10 (dashed line).
Considering the relative reactivity of the members of all three mutant libraries, additional studies were undertaken to attempt to quantify the effect of positively charged residues on the acidity of the cysteine residue thiol groups. […]
Libraries I, II and III were assayed using a plate reader: briefly, in a reaction scale of 200 μL, 50 μM MBP-dC10 (or variants) and 50 μM dansyl-dM10 1 were mixed in HEPES 50 mM pH 7.5 buffer in the presence of TCEP 1 mM. Fluorescence increase was followed at 28° C. long after completion of the reaction (2 hours) using the Synergy™ H4 Hybrid Multi-Mode Microplate Reader (BioTek, Winooski, Vt., United States) plate reader at 515 nm, upon excitation at 330 nm of the dansyl fluorophore of 1. Second order reaction constants were determined using the initial slope and the final plateau of each kinetic curve. […] Fluorogenic reactions were performed in a plate reader as described above, in duplicate.

The nature of data set [4]: In vitro reactivity of dC10 and dC10* with fluorogen 3. In kind it is biochemical. Conditions: fluorogen 3, 50 μM equimolar, 28° C., FIG. 13. As to the method:
(§1) Second order rate constant ratios are shown for fluorogen 3 (grey), and fluorogen 4 (black). Ratios were obtained by normalizing all rate constants to the rate constant of parent MBP-dC10. Absolute values of second order rate constants in M^−1min^−1 are shown for each fluorogen and dC10 or dC10*, and were obtained using equimolar concentration of 50 μM of fluorogen and test protein, at 28° C. Results were obtained at least in duplicate.
(§2) To extend the results shown above with fluorogens 1 and 2, we tested whether the labelling of dC10* (dC10-A3KA16RA17K) with other coumarin fluorogens would also show a kinetic advantage compared to dC10.

Data set [5] in a line: In vitro reactivity of dC10 and dC10* with fluorogen 4. The class given is biochemical. Conditions: fluorogen 4, 50 μM equimolar, 28° C., FIG. 13. As to the method: as §1, §2

Entries after “also recorded” stand apart in the source; their conditions may differ. Where a SMILES comes first, the peptide text is derived from it.

Take “L1SAAECAAREAACREAKARAGGK23 (LSAAECAAREAACREAKARAGGK) [dC10-A17K]”: the “reactivity of single mutants A17X (second order rate constant), in words” value in data set [1] was “best dC10 single mutant”. Turning to “L1SRAECAAREAACRERKARAGGK23 (LSRAECAAREAACRERKARAGGK) [dC10-A3RA16RA17K]”, the “increase in reactivity towards a dimaleimide fluorogen, triple mutants” value in data set [1] is reported as roughly 10 fold.

For “L1SAAECAAHEAACREAAARAGGK23 (LSAAECAAHEAACREAAARAGGK) [dC10-R9H]”, the “reactivity (second order kinetic constant) compared with parent dC10” value (shortened to “reactivity … compared with parent dC10”) in data set [2] is “did not appear to be more reactive than dC10”. “L1SKAECAAREAACREKKARAGGK23 (LSKAECAAREAACREKKARAGGK) [dC10-A3KA16KA17K]”: the “increase in reactivity towards a dimaleimide fluorogen, triple mutants” value in data set [1] is on record as roughly 10 fold. Same read-out and setting: for “L1SRAECAAREAACREKKARAGGK23 (LSRAECAAREAACREKKARAGGK) [dC10-A3RA16KA17K]” the value was roughly 10 fold. On to “L1SAAECHAREAACREAAARAGGK23 (LSAAECHAREAACREAAARAGGK) [dC10-A7H]”, for which the “reactivity … compared with parent dC10” value in data set [2] is “did not appear to be more reactive than dC10”. Still for that read-out and setting: for “L1HAAECAAREAACREAHARAGGK23 (LHAAECAAREAACREAHARAGGK) [dC10-S2HA17H]” the value was “more reactive than the parent dC10”. For “L1SAAECAAREAACREHKARAGGK23 (LSAAECAAREAACREHKARAGGK) [dC10-A16HA17K]”, the “reactivity compared among double mutants A16X-A17K” value in data set [1] (fluorogen 1, FIG. 10) is “not as reactive as double mutants A16K-A17K and A16R-A17K”. Consider “L1SAAECAAREAACREAHARAGGK23 (LSAAECAAREAACREAHARAGGK) [dC10-A17H]”, for which, in data set [1], the “reactivity of single mutants A17X (second order rate constant), in words” value is listed as “reacts faster than the parent dC10 peptide tag; also recorded: does not react as fast as the A17K mutant”. “L1HAAECAAREAACREAAARAGGK23 (LHAAECAAREAACREAAARAGGK) [dC10-S2H]”: in data set [2], the “reactivity … compared with parent dC10” value is on record as “did not appear to be more reactive than dC10”. `CC(C)C[C@H](N)C(=O)N[C@@H](CO)C(=O)N[C@@H](CCCCN)C(=O)N[C@@H](C)C(=O)N[C@@H](CCC(=O)O)C(=O)N[C@@H](CS)C(=O)N[C@@H](C)C(=O)N[C@@H](C)C(=O)N[C@@H](CCCNC(=N)N)C(=O)N[C@@H](CCC(=O)O)C(=O)N[C@@H](C)C(=O)N[C@@H](C)C(=O)N[C@@H](CS)C(=O)N[C@@H](CCCNC(=N)N)C(=O)N[C@@H](CCC(=O)O)C(=O)N[C@@H](CCCNC(=N)N)C(=O)N[C@@H](CCCCN)C(=O)N[C@@H](C)C(=O)N[C@@H](CCCNC(=N)N)C(=O)N[C@@H](C)C(=O)NCC(=O)NCC(=O)N[C@@H](CCCCN)C(=O)O` [dC10-A3KA16RA17K] (H-LSKAECAAREAACRERKARAGGK-OH; N-terminus and C-terminus assumed): the “pKa lower than that of the parent dC10 sequence” value in data set [3] is recorded as 0.70 units. Turning to “L1SAAECAAREAACREAAARAGGK23 (LSAAECAAREAACREAAARAGGK) [dC10, previously described parent dicysteine alpha-helical peptide tag]”, the “rate enhancement compared to dC10” value in data set [4] stood at 4 fold; in data set [5], 2 fold.

The values are drawn from patent publication US10591485B2, “Peptide tags for fluorescent labelling of proteins” (UNIVERSITY OF OTTAWA, priority 2015, dated 2020).
